From patent US20230295201A1 (Gilead Sciences, Inc., priority 2020, published 2023)
Like-named read-outs stand apart in the source and are kept apart here.

Experiments:
Type in all cases: cell-based
[1] = test system: Dengue serotype 2 New Guinea C (NGC) strain; assay: DENV-2 Huh-7 EC50 (qPCR in Huh7 cells)
Procedure: Huh7 (Human hepatocarcinoma 7) cells were maintained in 10% FCS-containing DMEM complete media. On the day of the assay, cells were trypsinized (0.1% Trypsin-EDTA), washed and infected for 2 hours in serum-free DMEM with Dengue serotype 2 New Guinea C (NGC) strain at MOI=0.1 with gentle agitation at 37° C. After 2 hours, cells were washed with serum-free media and suspended in 10% FCS-containing DMEM (Gibco, supplemented with sodium pyruvate, NEAA, Penicillin-Streptomycin). 10^5 cells were plated in triplicate in 96-well plates with compounds dispensed at graded doses (Hewlett-Packard D300 Digital Dispenser). All wells were normalized to 0.25% DMSO. At 48 hours, cells were washed with 1×PBS and all supernatants removed. Total RNA was extracted using RNEasy 96 plates (Qiagen) and used to generate first-strand cDNA using XLT cDNA 5×Supermix (QuantaBio). cDNA was used as a template in a Taqman qPCR duplex reaction specific to DENV2 viral and GAPDH gene expression. EC50 values were determined using Prism Graphpad software, with normalization to a positive control and no compound negative control wells.

[2] = test system: DENV2 replicon; assay: DENV-2 Huh-7 Rep EC50 (replicon luminescence); conditions: read-out: DENV-2 Huh-7 Rep EC50
In short: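 EC50 derived from luminescence dose-response, normalised to DMSO-only 0% inhibition wells, after 1.5 h with EnduRen substrate. Compounds were first exposed for 48 h at 37° C to DENV2 replicon Huh-7 cells (5,000/well).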

[3] = test system: RSV strain A2; assay: RSV HEp-2 EC50 (infectious cytopathic cell protection assay); conditions: HEp-2 cells, RSV A2, 4 days, read-out: RSV HEp-2 EC50
In short: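 Percent inhibition of RSV-induced cytopathic effect came from remaining cell viability (CellTiter-Glo luminescence) after 4 days at 37° C. Compounds in 3-fold serial dilutions were exposed to an infectious mix of titered A2 virus and HEp-2 cells at 50,000/ml, with 0% and 100% inhibition control standards.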

[4] = molecular target: HCV replicon 1B; assay: HCV Rep 1B EC50 (replicon luciferase)
Procedure: (§1) Compounds were serially diluted in ten steps of 1:3 dilutions in 384-well plates. All serial dilutions were performed in four replicates per compound within the same 384-well plate. […] To each well of a black polystyrene 384-well plate (Greiner Bio-one, Monroe, NC), 90 μL of cell culture medium (without Geneticin) containing 2000 suspended HCV replicon cells was added with a Biotek μFlow workstation. For compound transfer into cell culture plates, 0.4 μL of compound solution from the compound serial dilution plate was transferred to the cell culture plate on a Biomek FX workstation. The DMSO concentration in the final assay wells was 0.44%. The plates were incubated for 3 days at 37° C. with 5% CO2 and 85% humidity. The HCV replicon assay was a multiplex assay, able to assess both cytotoxicity and antireplicon activity from the same well. The CC50 assay was performed first. The media in the 384-well cell culture plate was aspirated, and the wells were washed four times with 100 μL of PBS each, using a Biotek ELX405 plate washer. A volume of 50 μL of a solution containing 400 nM calcein AM (Anaspec, Fremont, CA) in 1×PBS was added to each well of the plate with a Biotek μFlow workstation. The plate was incubated for 30 min at room temperature before the fluorescence signal (excitation 490 nm, emission 520 nm) was measured with a Perkin-Elmer Envision plate reader. The EC50 assay was performed in the same wells as the CC50 assay. The calcein-PBS solution in the 384-well cell culture plate was aspirated with a Biotek ELX405 plate washer. A volume of 20 μL of Dual-Glo luciferase buffer (Promega, Madison, WI) was added to each well of the plate with a Biotek μFlow Workstation. The plate was incubated for 10 min at room temperature. A volume of 20 μL of a solution containing a 1:100 mixture of Dual-Glo Stop & Glo substrate (Promega, Madison, WI) and Dual-Glo Stop & Glo buffer (Promega, Madison, WI) was added to each well of the plate with a Biotek μFlow Workstation. The plate was then incubated at room temperature for 10 min before the luminescence signal was measured with a Perkin-Elmer Envision Plate Reader.

[5] = molecular target: HCV replicon 2A; assay: HCV Rep 2A EC50 (replicon luciferase)
Procedure: as §1

[6] = test system: RSV A2; assay: RSV NHBE EC50 (RSV A2 antiviral assay in normal human bronchial epithelial cells); conditions: NHBE cells, RSV A2, 4 days, read-out: RSV NHBE EC50
[7] = test system: HRV16; assay: HRV16 HELA EC50 (cytopathic effect in H1-HeLa cells)
In short: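 Read-out is luminescent cell viability (CellTiter-Glo) after 96 h of infection at 33 °C, scaled between uninfected and infected-untreated wells. Before infection with titrated virus, compounds went onto H1-HeLa cells as triplicate 3-fold dilution series.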

[8] = test system: Dengue 2, New Guinea strain (NGC); assay: DENV-2 moDC EC50 (qPCR in human monocyte-derived dendritic cells); conditions: moDCs
Procedure: Human monocyte-derived dendritic cells (moDCs) were derived from CD14+ monocytes (AllCells) cultured in Human Mo-DC Differentiation medium containing GM-CSF and IL-4 (Miltenyi Biotec). On day 7, moDCs were harvested by mechanical disruption, washed and suspended in serum-free RPMI. moDCs were infected with Vero-derived Dengue 2, New Guinea strain (NGC) at a MOI=0.1 for two hours in serum-free RPMI with gentle agitation at 37° C. Cells were washed and resuspended in 10% serum-containing RPMI (Gibco, supplemented with sodium pyruvate, NEAA, Penicillin-Streptomycin). 10^5 cells were plated in triplicate in 96-well plates with compounds dispensed at graded doses (Hewlett-Packard D300 Digital Dispenser). All wells were normalized to 0.25% DMSO. At 48 hours, cells were washed with 1×PBS and all supernatants removed. Total RNA was extracted using RNEasy 96 plates (Qiagen) and used to generate first-strand cDNA using XLT cDNA 5× Supermix (QuantaBio). cDNA was used as a template in a Taqman qPCR duplex reaction specific to DENV2 viral and GAPDH gene expression. EC50 values were determined using Prism Graphpad software, with normalization to a positive control and no compound negative control wells.

[9] = replicon cells, 3 days, read-out: HCV Rep 1B EC50
[10] = replicon cells, 3 days, read-out: HCV Rep 2A EC50
[11] = Dengue virus, DENV2, Huh-7, 48 h, Huh-7 replicon cells, 48 hours
[12] = H1-HeLa cells, 96 h, 33° C.; read-out: HRV16 HELA EC50
[13] = Dengue virus, DENV2, Dendritic cell, 48 h
[14] = Dengue virus, DENV2, Huh-7, 48 h
[15] = human respiratory syncytial virus, 96 h
[16] = 96 h, H1-HeLa cells, 33° C., read-out: HRV16 HELA EC50
[17] = human respiratory syncytial virus, NHBE, 96 h
[18] = human respiratory syncytial virus, HEp-2, 96 h

| Compound | EC50 ([1]; 48 hours) | EC50 ([2]; Huh-7 replicon cells, 48 hours) | EC50 [3] | EC50 [4, 9] | EC50 [5, 10] | EC50 [6] | EC50 [2, 11] | EC50 [7, 12] | also measured |
| --- | --- | --- | --- | --- | --- | --- | --- | --- | --- |
| COCCCOC(=O)[C@H](C)NP(=O)(OC[C@@]1(C#N)O[C@@H](c2ccc3c(N)ncnn23)[C@H](O)[C@@H]1O)Oc1ccccc1 (single isomer, unassigned) [Example 60] | 6.82 µM | 41.3 µM | 0.583 µM | 6.08 µM | 10.8 µM | 0.361 µM |  |  |  |
| C[C@H](NP(=O)(OC[C@@]1(C#N)O[C@@H](c2ccc3c(N)ncnn23)[C@H](O)[C@@H]1O)Oc1ccccc1)C(=O)O[C@H]1CCOC1 (single isomer, unassigned) [Example 66] |  |  |  |  |  |  | > 100 µM |  | EC50 ([4]; Hepatitis C virus, 72 h, read-out: HCV Rep 1B EC50, replicon cells, 3 days): 14.9 µM; EC50 ([5]; Hepatitis C virus, 72 h, read-out: HCV Rep 2A EC50, replicon cells, 3 days): 21.8 µM |
| CC(NP(=O)(OCC1(C#N)OC(c2ccc3c(N)ncnn23)C(O)C1O)Oc1ccccc1)C(=O)OC1CCOC1 (single isomer, unassigned) [Example 69] |  | > 100 µM |  | 25.3 µM | 50.3 µM |  |  | 7.33 µM |  |
| CC(NP(=O)(OCC1(C#N)OC(c2ccc3c(N)ncnn23)C(O)C1O)Oc1ccccc1)C(=O)OC1CCOC1 (single isomer, unassigned) [Example 70] |  | > 100 µM |  | 9.43 µM | 32.7 µM |  |  | 5.23 µM |  |
| CCC(CC)COC(=O)[C@H](C)NP(=O)(N[C@@H](C)C(=O)OC1CCCCC1)OC[C@@]1(C#N)O[C@@H](c2ccc3c(N)ncnn23)[C@H](O)[C@@H]1O (single isomer, unassigned) [Example 227] |  | 39.4 µM | 0.614 µM | 10.2 µM | 4.76 µM | 0.126 µM |  | 4.94 µM |  |
| CCC(C)(C)COC(=O)[C@H](C)NP(=O)(OC[C@@]1(C#N)O[C@@H](c2ccc3c(N)ncnn23)[C@H](O)[C@@H]1O)Oc1ccccc1 (single isomer, unassigned) [Example 255] | 0.824 µM | 4.95 µM | 0.018 µM |  |  | 0.043 µM |  |  | EC50 [8, 13]: 0.086 µM |
| CCC(C)(C)COC(=O)[C@H](C)NP(=O)(OC[C@@]1(C#N)O[C@@H](c2ccc3c(N)ncnn23)[C@H](O)[C@@H]1O)Oc1ccccc1 (single isomer, unassigned) [Example 256] | > 18.1 µM | > 100 µM | 0.054 µM |  |  | 0.43 µM |  |  | EC50 ([8]; 48 hours): 0.103 µM |
| CCC(CC)COC(=O)[C@H](C)NP(=O)(N[C@@H](C)C(=O)OCC(CC)CC)OC[C@@]1(C#N)O[C@@H](c2ccc3c(N)ncnn23)[C@H](O)[C@@H]1O [Example 7] |  |  |  |  |  |  |  | 5.94 µM | EC50 [2, 14]: 32.9 µM; EC50 [3, 15]: 1.86 µM; EC50 ([8]; Dengue virus, DENV2, Dendritic cell, 48 hours): > 25 µM; EC50 [6, 15]: 0.265 µM |
| CCCCOC(=O)[C@H](C)N[P@](=O)(OC[C@@]1(C#N)O[C@@H](c2ccc3c(N)ncnn23)[C@H](O)[C@@H]1O)Oc1ccccc1 [Example 54, butyl ((S)-(((2R,3S,4R,5S)-5-(4-aminopyrrolo[2,1-f][1,2,4]triazin-7-yl)-2-cyano-3,4-dihydroxytetrahydrofuran-2-yl)methoxy)(phenoxy)phosphoryl)-L-alaninate] |  |  |  |  |  |  | 7.4 µM |  | EC50 [1, 14]: 2.59 µM; EC50 [8, 13]: 0.804 µM; EC50 [7, 16]: 0.378 µM; EC50 [6, 17]: 0.105 µM |
| C[C@H](N[P@](=O)(OC[C@@]1(C#N)O[C@@H](c2ccc3c(N)ncnn23)[C@H](O)[C@@H]1O)Oc1ccccc1)C(=O)OCC1CCC1 [Example 120] | 0.798 µM | 7.46 µM | 0.101 µM |  |  | 0.104 µM |  | 0.295 µM |  |
| CCCCCCCCOC(=O)[C@H](C)NP(=O)(OC[C@@]1(C#N)O[C@@H](c2ccc3c(N)ncnn23)[C@H](O)[C@@H]1O)Oc1ccccc1 (stereo partly drawn) [Example 188, octyl ((((2R,3S,4R,5S)-5-(4-aminopyrrolo[2,1-f][1,2,4]triazin-7-yl)-2-cyano-3,4-dihydroxytetrahydrofuran-2-yl)methoxy)(phenoxy)phosphoryl)-L-alaninate] |  |  |  |  |  |  | 21.4 µM |  | EC50 [1, 14]: 3.02 µM; EC50 [3, 18]: 0.186 µM; EC50 [7, 16]: 0.429 µM; EC50 [6, 17]: 0.038 µM |
| CCCCCCCCCCCC(=O)Nc1ncnn2c([C@@H]3O[C@](C#N)(CO[P@@](=O)(N[C@@H](C)C(=O)OC4CCCCC4)Oc4ccccc4)[C@@H](O)[C@H]3O)ccc12 [Example 232, Cyclohexyl ((S)-(((2R,3S,4R,5S)-2-cyano-5-(4-dodecanamidopyrrolo[2,1-f][1,2,4]triazin-7-yl)-3,4-dihydroxytetrahydrofuran-2-yl)methoxy)(phenoxy)phosphoryl)-L-alaninate] |  |  |  |  |  |  | 5.32 µM |  | EC50 [3, 18]: 0.061 µM; EC50 [8, 13]: 1.09 µM; EC50 [7, 16]: 0.479 µM; EC50 [6, 17]: 0.098 µM |
